Format in all cases: cell-based
For experiment [1], the system named is Wnt activity (Sp5-Luc reporter, SW480 colon carcinoma cells). Nature of the experiment: Screening assay for Wnt activity: Sp5-Luc reporter gene assay in SW480 cells. The settings on record: Homo sapiens; for EC50: SW480 Sp5-Luc reporter, overnight incubation; for inhibition at 10 µM: SW480, read-out: percent inhibition at 10 μM. From the text: The screening assay for Wnt activity is described as follows. Reporter cell lines can be generated by stably transducing cancer cell lines (e.g., colon cancer) or primary cells (e.g., IEC-6 intestinal cells) with a lentiviral construct that includes a Wnt-responsive promoter driving expression of the firefly luciferase gene.
SW480 colon carcinoma cells were transduced with a lentiviral vector expressing luciferase with a human Sp5 promoter consisting of a sequence of eight TCF/LEF binding sites. SW480 cells stably expressing the Sp5-Luc reporter gene and a hygromycin resistance gene were selected by treatment with 150 μg/mL of hygromycin for 7 days. These stably transduced SW480 cells were expanded in cell culture and used for all further screening activities. […] For Sp5-Luc reporter gene assays, the cells were plated at 4,000 cells/well in 384-well plates with medium containing 1% fetal bovine serum and incubated overnight at 37° C. and 5% CO2. Following incubation, 20 μl of BrightGlo luminescence reagent (Promega) was added to each well of the 384-well assay plates. The plates were placed on an orbital shaker for 2 min and then luminescence was quantified using the Envision (Perkin Elmer) plate reader. Readings were normalized to DMSO only treated cells, and normalized activities were utilized for EC50 calculations using the dose-response log (inhibitor) vs. response-variable slope (four parameters) nonlinear regression feature available in GraphPad Prism 5.0 (or Dotmatics).

The test system of a further experiment is SW480 colon cancer cells. Nature of the experiment: Cell viability assay (CellTiter-Blue) in SW480 colon cancer cells. Particulars: Homo sapiens; for EC50: 96 h, SW480 cell viability, four days incubation; for inhibition at 10 µM: SW480, read-out: percent inhibition at 10 μM. How it is done:
Representative compounds were screened using the following assay procedure to assess the effect on cell viability as described below.
Approximately 2×10^3 SW480 colon cancer cells were seeded into each well and allowed to incubate in the presence or absence of compound for four days at 37° C./5% CO2. Eight replicates of DMSO-treated cells served as controls and cells treated with compound were performed in duplicate.
After incubation, 20 μL of CellTiter-Blue (Promega) was added to each well allowed to incubate for approximately 3 hours. This reagent was a buffered solution which contains resazurin, metabolically active cells were able to reduce rezarurin (blue) into resorufin (pink) which was highly fluorescent. This measured fluorescence was used as a readout for cell viability.

Experiment [2] relates to Primary human fibroblasts derived from IPF patients (LL29 cells). The experiment can be described thus: Inhibition of the fibrotic process: αSMA staining in TGF-β1-treated LL29 fibroblasts. The settings on record: Fibroblast; for EC50: 96 h, LL29 cells, TGF-β1 20 ng/mL, 4 days, % αSMA-positive cells. From the text: Representative compounds were screened using primary human fibroblasts (derived from IFF patients) treated with TGF-β1 to determine their ability to inhibit the fibrotic process.
K. L., et.al., “RhoA signaling modulates cyclin D1 expression in human lung fibroblasts; implications for idiopathic pulmonary fibrosis”, Respiratory Research (2006), 7(1), 88] were obtained from American Type Culture Collection (ATCC) and expanded in F12 medium supplemented with 15% Fetal Bovine Serum and Penicillin/Streptomycin.
LL29 cells are plated at 1,500 cells/well in 80 μL/well F12 medium supplemented with 1% Fetal Bovine Serum. […] Wells treated with TGF-β1 and containing DMSO were used as controls. […] Following incubation for 4 days, SYTOX green nucleic acid stain (Life Technologies [Thermo Fisher Scientific]) was added to the wells at a final concentration of 1 μM and incubated at room temperature for 30 min.

The next experiment deals with IL-6 (THP-1 cells). Nature of the experiment: IL-6 inhibition in THP-1 monocytes (HTRF). The settings on record: Homo sapiens; for EC50: IL-6 inhibition, THP-1 cells, HTRF, 10-point dose-response starting from 10 μM; for inhibition at 10 µM: THP-1, read-out: percentage in parentheses printed under EC50 >10. How it is done:
Compound Screening: THP-1 cells were cultured in basal media with 1% FBS for 24 hours before the start of the assay. […] THP-1 cells were plated at 5000 cells/well in the 384-well plates and incubated at 37° C. for 2 h. 500 ng/mL of […] was added after 2 hours and cells were incubated for another 22 hours at 37° C. Plates were spun in a centrifuge for 1 minute at 10,000 rpm and a mixture of anti-IL6 XL665, and anti-IL6 Cryptate diluted in reconstitution buffer (Cisbio Inc.) was added to each well. Following incubation for 3 hrs at room temperature, Homogeneous Time-Resolved Fluorescence (HTRF) was measured using the Envision (Perkin Elmer) at 665 nm and […]. The ratio of fluorescence at 665 nm to 620 nm was used as a readout for IL6 quantification. All samples were processed in duplicate. Readings were normalized to DMSO treated cells and normalized activities were utilized for EC50 calculations using the dose-response log (inhibitor) vs. response-variable slope (four parameters) nonlinear regression feature available in GraphPad Prism 5.0 (or Dotmatics).

The values below come from patent US20180228780A1, “3-(1H-PYRROLO[2,3-C]PYRIDIN-2-YL)-1H-INDAZOLES AND THERAPEUTIC USES THEREOF” (Samumed, LLC, priority 2015, published 2018).

Bounds are passed on as bounds.

Consider `CC(C)Nc1cncc(-c2ccc3[nH]nc(-c4cc5c(-c6cc(F)cc(CNS(C)(=O)=O)c6)cncc5[nH]4)c3c2)c1` [Compound 488, N-(3-Fluoro-5-(2-(5-(5-(isopropylamino)pyridin-3-yl)-1H-indazol-3-yl)-1H-pyrrolo[2,3-c]pyridin-4-yl)benzyl)methanesulfonamide], for which the EC50 worked out at 759 nM in experiment [1], 1650 nM in the experiment on SW480 colon cancer cells, 2220 nM in experiment [2] and 130 nM in the experiment with IL-6 (THP-1 cells).

Consider `CCCC(=O)Nc1cncc(-c2ccc3[nH]nc(-c4cc5c(-c6cccc(F)c6)cncc5[nH]4)c3c2)c1` [Compound 17, N-(5-(3-(4-(3-Fluorophenyl)-1H-pyrrolo[2,3-c]pyridin-2-yl)-1H-indazol-5-yl)pyridin-3-yl)butyramide], for which the EC50 in experiment [1] is 200 nM; in the experiment with SW480 colon cancer cells, 282 nM; in experiment [2], 254 nM; in the experiment on IL-6 (THP-1 cells), 87 nM.

Turning to `CCCCC(=O)Nc1cncc(-c2ccc3[nH]nc(-c4cc5c(-c6cc(F)cc(CNS(C)(=O)=O)c6)cncc5[nH]4)c3c2)c1` [Compound 495, N-(5-(3-(4-(3-Fluoro-5-(methylsulfonamidomethyl)phenyl)-1H-pyrrolo[2,3-c]pyridin-2-yl)-1H-indazol-5-yl)pyridin-3-yl)pentanamide], the half-maximal effective concentration (EC50) in experiment [1] is 1730 nM; with SW480 colon cancer cells, 3440 nM; in experiment [2], above 10000 nM; in the experiment with IL-6 (THP-1 cells) it was 397 nM. The inhibition at 10 µM in experiment [2] (read-out: percent inhibition at 10 μM) is 3.3%.

As for `c1cc(-c2cncc3[nH]c(-c4n[nH]c5ccc(-c6cncc(CN7CCCCC7)c6)cc45)cc23)co1` [Compound 323, 3-(4-(Furan-3-yl)-1H-pyrrolo[2,3-c]pyridin-2-yl)-5-(5-(piperidin-1-ylmethyl)pyridin-3-yl)-1H-indazole], the EC50 came to 418 nM in experiment [1], 570 nM in the experiment with SW480 colon cancer cells, 1390 nM in experiment [2] and 219 nM in the experiment with IL-6 (THP-1 cells).

As to `NC1CN(c2cncc(-c3ccc4[nH]nc(-c5cc6c(N7CCCCC7)cncc6[nH]5)c4c3)n2)C1` [Compound 606, 1-(6-(3-(4-(Piperidin-1-yl)-1H-pyrrolo[2,3-c]pyridin-2-yl)-1H-indazol-5-yl)pyrazin-2-yl)azetidin-3-amine], the EC50 in experiment [1] turned out to be 738 nM; in the experiment on SW480 colon cancer cells, 2810 nM; in experiment [2], 486 nM; in the experiment on IL-6 (THP-1 cells), 306 nM.

Consider `c1cc(-c2ccc3[nH]nc(-c4cc5c(-c6ccncc6)cncc5[nH]4)c3c2)ccn1` [Compound 130, 5-(Pyridin-4-yl)-3-(4-(pyridin-4-yl)-1H-pyrrolo[2,3-c]pyridin-2-yl)-1H-indazole], for which the results for the inhibition at 10 µM (in experiment [1]; with SW480 colon cancer cells; with IL-6 (THP-1 cells)) were 24.7%, 16.6% and 20.5%, respectively. The EC50 is above 10000 nM in experiment [1], above 10000 nM in the experiment with SW480 colon cancer cells, 1230 nM in experiment [2] and above 10000 nM in the experiment on IL-6 (THP-1 cells).

`CN(C)CCOc1cncc(-c2ccc3[nH]nc(-c4cc5c(-c6ccc(F)cc6)cncc5[nH]4)c3c2)c1` [Compound 531, 2-((5-(3-(4-(4-Fluorophenyl)-1H-pyrrolo[2,3-c]pyridin-2-yl)-1H-indazol-5-yl)pyridin-3-yl)oxy)-N,N-dimethylethan-1-amine]: the EC50 in experiment [1] came to 2010 nM; in the experiment with SW480 colon cancer cells it was 976 nM; in experiment [2], 607 nM; with IL-6 (THP-1 cells), 2760 nM.

In the case of `CN(C)Cc1cncc(-c2ccc3[nH]nc(-c4cc5c(-c6ccc(F)cc6)cncc5[nH]4)c3c2)c1` [Compound 41, 1-(5-(3-(4-(4-Fluorophenyl)-1H-pyrrolo[2,3-c]pyridin-2-yl)-1H-indazol-5-yl)pyridin-3-yl)-N,N-dimethylmethanamine], the EC50 in experiment [1] amounted to 3080 nM; in the experiment on SW480 colon cancer cells it was 1170 nM; in experiment [2], 1190 nM; with IL-6 (THP-1 cells), 7050 nM.

Turning to `Fc1ccccc1-c1cncc2[nH]c(-c3n[nH]c4ccc(-c5cncc(CN6CCC(F)(F)C6)c5)cc34)cc12` [Compound 82, 5-(5-((3,3-Difluoropyrrolidin-1-yl)methyl)pyridin-3-yl)-3-(4-(2-fluorophenyl)-1H-pyrrolo[2,3-c]pyridin-2-yl)-1H-indazole], the EC50 in experiment [1] was 630 nM; with SW480 colon cancer cells it was 923 nM; in experiment [2], 648 nM; in the experiment with IL-6 (THP-1 cells), 796 nM.

Consider `Fc1cccc(-c2cncc3[nH]c(-c4n[nH]c5ccc(-c6cccnc6)cc45)cc23)c1` [Compound 4, 3-(4-(3-Fluorophenyl)-1H-pyrrolo[2,3-c]pyridin-2-yl)-5-(pyridin-3-yl)-1H-indazole], for which the EC50 came to 395 nM in experiment [1], 1380 nM with SW480 colon cancer cells, 1630 nM in experiment [2] and 783 nM in the experiment with IL-6 (THP-1 cells).

For `O=C(Cc1ccccc1)Nc1cncc(-c2ccc3[nH]nc(-c4cc5c(-c6ccncc6)cncc5[nH]4)c3c2)c1` [Compound 122], the figures for the inhibition at 10 µM (in experiment [1]; in the experiment on SW480 colon cancer cells; with IL-6 (THP-1 cells)) were 21%, 8.6% and 47.8%, respectively. Further, the half-maximal effective concentration (EC50) in experiment [1] is above 10000 nM; in the experiment with SW480 colon cancer cells, above 10000 nM; in experiment [2], 1470 nM; in the experiment on IL-6 (THP-1 cells), above 10000 nM.

`CCCCC(=O)Nc1cncc(-c2ccc3[nH]nc(-c4cc5c(-c6ccccc6F)cncc5[nH]4)c3c2)c1` [Compound 75]: the EC50 in experiment [1] is 1760 nM; with SW480 colon cancer cells, 1180 nM; in experiment [2], 1160 nM; with IL-6 (THP-1 cells), above 10000 nM. Further, in the experiment on IL-6 (THP-1 cells), the inhibition at 10 µM worked out at 39.1%.

In the case of `Fc1ccccc1-c1cncc2[nH]c(-c3n[nH]c4ccc(-c5cn[nH]c5)cc34)cc12` [Compound 539, 3-(4-(2-Fluorophenyl)-1H-pyrrolo[2,3-c]pyridin-2-yl)-5-(1H-pyrazol-4-yl)-1H-indazole], the EC50 worked out at 49 nM in experiment [1], 134 nM in the experiment on SW480 colon cancer cells, 164 nM in experiment [2] and 37 nM in the experiment on IL-6 (THP-1 cells).

On to `Fc1ccccc1-c1cncc2[nH]c(-c3n[nH]c4ccc(-c5ccccn5)cc34)cc12` [Compound 84, 3-(4-(2-Fluorophenyl)-1H-pyrrolo[2,3-c]pyridin-2-yl)-5-(pyridin-2-yl)-1H-indazole], for which the inhibition at 10 µM in experiment [1] is 45.9%. Besides, the EC50 in experiment [1] was above 10000 nM; in the experiment with SW480 colon cancer cells, 2160 nM; in experiment [2], 1910 nM; in the experiment with IL-6 (THP-1 cells), 6480 nM.

`O=C(Nc1cncc(-c2ccc3[nH]nc(-c4cc5c(-c6ccncc6)cncc5[nH]4)c3c2)c1)C1CCCCC1` [Compound 135, N-(5-(3-(4-(Pyridin-4-yl)-1H-pyrrolo[2,3-c]pyridin-2-yl)-1H-indazol-5-yl)pyridin-3-yl)cyclohexanecarboxamide]: the inhibition at 10 µM was 20.8% in experiment [1] and 6.1% with SW480 colon cancer cells. In addition, the EC50 was above 10000 nM in experiment [1], above 10000 nM with SW480 colon cancer cells, 9980 nM in experiment [2] and 1630 nM in the experiment on IL-6 (THP-1 cells).
